Experimental data reported in patent US20240173317A1, “METHODS FOR TREATING PROGRESSIVE FAMILIAL INTRAHEPATIC CHOLESTASIS” (MIRUM PHARMACEUTICALS, INC., priority 2022, published 2024).
Like-named read-outs stand apart in the source and are kept apart here.

Experiments:
subjects with PFIC [1] = experiment: Clinical laboratory evaluations (ALT/transaminases, INR, vitamins A, D, E), MARCH-PFIC Phase 3 study; type: in vivo, human
Excerpt: Clinical Laboratory Evaluations.
For subjects with a confirmed increase in ALT or TSB level, meeting the close monitoring criteria, the following investigations were considered, as clinically indicated: 1) Close and frequent monitoring of liver enzyme and serum bilirubin tests as clinically indicated; 2) Symptoms as well as prior, current, and intercurrent diseases/illnesses; 3) Use of or recent change in use of concomitant treatment (including non-prescription medications, herbal and dietary supplement preparations), alcohol use, recreational drug use, and special diets; 4) History for exposure to environmental chemical agents and travel; 5) Serology for viral hepatitis (HAV IgM, HBsAg, HCV antibody, HCVRNA, CMV IgM, and EBV antibody panel); 6) Serology for autoimmune hepatitis (e.g., antinuclear antibody [ANA]); 7) AST, creatine phosphokinase (CPK), and lactate dehydrogenase (LDH); 8) CBC with differential blood count (eosinophils); 9) Reticulocyte count, PT/INR.

subjects with PFIC [2] = experiment: EDQ(Obs) sleep disturbance score, MARCH-PFIC Phase 3 study; type: in vivo, human; details: All-PFIC; FIG. 27D
Excerpt: The terms “EDQ(Obs)”, “EDQ(Pt)”, and “EDQ” as used herein, refer to Exploratory Diary Questionnaire that are used to assess pruritus in children under the age of 18 or adults of at least 18 years of age. EDQ is a caregiver/patient reported outcome measure administered as a twice daily electronic diary. EDQ contained a question about sleep related to pruritus: “because of itch, my child had trouble staying asleep. 1—Never, 2—Rarely, 3—ometimes, 4—Often, or 5—Almost Always.” Caregivers for all subjects aged <9 years completed the Observer instrument: EDQ(Obs). Subjects ≥9 years of age completed the patient instrument: EDQ(Pt). EDQ includes questions on sleep disturbances related to pruritus.
Exploratory Diary Questionnaire. Pruritus was assessed using the EDQ caregiver/patient reported outcome measure administered as a twice daily electronic diary. […] Pruritus was assessed and recorded twice daily by subjects or caregivers, via EDQ, beginning with the day after the screening visit and every day throughout the duration of the study, as described in Table 2.
Methods: Participants were randomized to receive MRX 570 μg/kg BID or placebo (PBO) (FIG. 27A). The primary analysis evaluated pruritus as assessed by the caregiver using ItchRO(Obs) 0-4 scale; as well as by physician using the Clinician Scratch Scale (CSS). Sleep was assessed using the Exploratory Diary Questionnaire (Observer) (EDQ[Obs]). […]

patients with PFIC = experiment: TEAEs, MARCH-ON long-term extension; type: in vivo, human
Description: Eighty-five patients from MARCH trial enrolled in MARCH-ON (Table 10, FIG. 29A). Forty-seven patients had received Maralixibat (MRX-MRX) and 38 had received placebo (PBO-MRX) during MARCH trial.
Methods: Long-term maintenance of response was assessed for patients who were originally randomized to receive MRX in MARCH and continued with treatment in MARCH-ON (MRX-MRX group; n=33). MRX response was assessed for patients who received PBO in the MARCH study and switched to open-label MRX in MARCH-ON (PBO-MRX group; n=24). Assessments included: pruritus measured by 0-4 scale of ItchRO[Obs], sBA, bilirubin, and growth z-scores, as well as incidence of treatment-emergent adverse events(TEAEs). Baseline (BL) was defined as the start of MRX for each group.

[3] = tested on: patients with a truncated BSEP (t-BSEP) deficiency; experiment: sBA in individual t-BSEP patients (week 26 and week 58 of treatment); type: in vivo, human
participants with ALGS = experiment: sBA in participants with ALGS aged 16 years and older; type: in vivo, human
Description: All patients received the daily dose appropriate for their weight, with an adult maximum dose of 28.5 mg/d. ^bBefore age 16 years is defined as the last data point prior to turning 16 years of age. After age 16 years is defined as the first data point after turning 16 years of age.
FIGS. 31A and 31B show a change in ltchRO(Obs) (FIG. 31A) and sBA (FIG. 31B) for participants who initiated MRX treatment at <16 years of age (n=11). Of 11 participants, 9 had ItchRO(Obs) scores available for all time points and were included in the analysis. ^bItchRO(Obs) is a 0-4 scale with >1-point reduction considered clinically meaningful. Mean ItchRO(Obs) was rounded to 1 decimal place. Error bars represent SE. Significance was determined using student t test. ^cMean sBA was rounded to the nearest whole number. Error bars represent SE. ^dAverage of last 2 records prior to age 16 years. ^eAverage of first 2 records after age 16 years. ^fAverage of final 2 records.
FIGS. 32A and 32B show a change in ltchRO(Obs) (FIG. 32A) and sBA (FIG. 32B) for participants who Initiated MRX treatment at ≥16 years of age (n=3). ^aItchRO(Obs) is 0-4 scale with ≥1-point reduction considered clinically meaningful. ^bAverage of final two records.
The efficacy and safety of MRX in participants with ALGS aged ≥16 years transitioning to adult care and participant aged ≥16 years who initiate MRX treatment were studied (FIG. 30). […]

[4] = tested on: participants with PFIC 1 or PFIC 2; details: cited from earlier work

**Q.** Which “changes in serum ALT” value (subjects with PFIC [1]; All-PFIC Cohort, FIG. 26A-B) does the source give for `CCCCC1(CCCC)CS(=O)(=O)c2ccc(N(C)C)cc2[C@@H](c2ccc(OCc3ccc(C[N+]45CCN(CC4)CC5)cc3)cc2)[C@H]1O` [maralixibat, 1-(4-((4-((4R,5R)-3,3-dibutyl-7-(dimethylamino)-4-hydroxy-1,1-dioxido-2,3,4,5-tetrahydrobenzo[b]thiepin-5-yl)phenoxy)methyl)benzyl)-1,4-diazabicyclo[2.2.2]octan-1-ium] here?
**A.** No significant changes

**Q.** What about the “changes from baseline in transaminase levels” value (subjects with PFIC [1]; MARCH, either group) of the same molecule?
**A.** no clinically meaningful changes

**Q.** What about the “changes from baseline in serum levels of vitamins A, D, and E” value (subjects with PFIC [1]; MARCH, under regular FSV supplementation) of the same molecule?
**A.** No clinically meaningful changes

**Q.** What about the “International normalized ratio (INR), mean change from Baseline” value (subjects with PFIC [1]; MARCH, week 26) of the same molecule?
**A.** −0.3

**Q.** What about the “CFB in sleep (EDQ(Obs)), difference MRX vs PBO, delta [95% CI]” value (subjects with PFIC [2]) of the same molecule?
**A.** significant improvements

**Q.** And the “Any TEAE, %” value (patients with PFIC; MRX-MRX (n = 47))?
**A.** (1M)

**Q.** What about the “Most common TEAE: diarrhoea, %” value (patients with PFIC; MRX-MRX (n = 47)) of the same molecule?
**A.** (63.8) %

**Q.** And the “Serious TEAE, %” value (patients with PFIC; MRX-MRX (n = 47))?
**A.** (17.0) %

**Q.** What about the “Severe TEAE, %” value (patients with PFIC; MRX-MRX (n = 47)) of the same molecule?
**A.** (10.6) %

**Q.** What about the “TEAE leading to death, %” value (patients with PFIC; MRX-MRX (n = 47)) of the same molecule?
**A.** (2.1) %

**Q.** What about the “TEAE leading to discontinuation, %” value (patients with PFIC; MRX-MRX (n = 47)) of the same molecule?
**A.** (6.4) %

**Q.** And the “Any TEAE, %” value (patients with PFIC; PBO-MRX (n = 38))?
**A.** (92.1) %

**Q.** And the “Most common TEAE: diarrhoea, %” value (patients with PFIC; PBO-MRX (n = 38))?
**A.** (34.2) %

**Q.** What about the “Serious TEAE, %” value (patients with PFIC; PBO-MRX (n = 38)) of the same molecule?
**A.** (15.0) %

**Q.** And the “Severe TEAE, %” value (patients with PFIC; PBO-MRX (n = 38))?
**A.** (5.3) %

**Q.** And the “early onset of diarrhea (most frequent TEAE)” value (patients with PFIC; overall)?
**A.** 51%

**Q.** And the new safety signals (patients with PFIC; overall)?
**A.** no new safety signals

**Q.** And the “sBA change in individual t-BSEP patients” value ([3]; Baseline to Week 26, FIG. 42D)?
**A.** reductions from Baseline to Week 26 in sBA

**Q.** And the “sBA reduction in individual t-BSEP patients” value ([3]; all patients receiving maralixibat (MRX-MRX) or switching from placebo (PBO-MRX), Table 15)?
**A.** meaningful sBA reduction

**Q.** And the “improvements in sBA” value (participants with ALGS; MRX during childhood, maintained into early adulthood, FIG. 31B)?
**A.** significant improvements

**Q.** And the “improvements in sBA” value (participants with ALGS; participants receiving MRX in early adulthood, FIG. 32B)?
**A.** significant improvements

**Q.** What about the “response in Indigo Phase 2 study” value ([4]; participants with PFIC 2) of the same molecule?
**A.** had a response

**Q.** And the “response in Indigo Phase 2 study” value ([4]; patients with PFIC 1)?
**A.** did not have a response
